Test results published in ChEMBL document CHEMBL3045810, “Synthesis and evaluation of 4-(substituted)-acetylamino-3-mercapto-5-(4-substituted) phenyl-1,2,4-triazole derivatives as antimicrobial agents” (2012).
Active and inactive are the calls of the source. No cut-off for these calls is given here.

Columns and labels:
Pseudomonas aeruginosa [1] = assay: Antibacterial activity against Pseudomonas aeruginosa ATCC 27853 at 70 ug/ml after 24 hr by paper disk diffusion method; assay type: functional; details: ATCC 27853, 24 h, read-out: DIZ
Pseudomonas aeruginosa [2] = assay: Antibacterial activity against Pseudomonas aeruginosa ATCC 27853 at 30 ug/ml after 24 hr by paper disk diffusion method; assay type: functional; details: ATCC 27853, 24 h, read-out: DIZ
Fusarium oxysporum [3] = assay: Fungicidal activity against Fusarium oxysporum MTCC 2087; assay type: functional, organism-based
Fusarium oxysporum [4] = assay: Antifungal activity against Fusarium oxysporum MTCC 2087 at 30 ug/ml by paper disk diffusion method; assay type: functional; details: read-out: DIZ
Staphylococcus aureus [5] = assay: Antibacterial activity against Staphylococcus aureus ATCC 25923 at 70 ug/ml after 24 hr by paper disk diffusion method; assay type: functional; details: ATCC 25923, 24 h, read-out: DIZ
Staphylococcus aureus [6] = assay: Bactericidal activity against Staphylococcus aureus ATCC 25923; assay type: functional, organism-based
Pseudomonas aeruginosa [7] = assay: Bactericidal activity against Pseudomonas aeruginosa ATCC 27853; assay type: functional, organism-based
Bacillus subtilis [8] = assay: Antibacterial activity against Bacillus subtilis ATCC 6633 at 30 ug/ml after 24 hr by paper disk diffusion method; assay type: functional; details: ATCC 6633, 24 h, read-out: DIZ
Bacillus subtilis [9] = assay: Antibacterial activity against Bacillus subtilis ATCC 6633 at 50 ug/ml after 24 hr by paper disk diffusion method; assay type: functional; details: ATCC 6633, 24 h, read-out: DIZ
Candida albicans [10] = assay: Antifungal activity against Candida albicans MTCC 227 at 50 ug/ml by paper disk diffusion method; assay type: functional; details: read-out: DIZ
Bacillus subtilis [11] = assay: Bactericidal against Bacillus subtilis ATCC 6633; assay type: functional, organism-based
Escherichia coli [12] = assay: Antibacterial activity against Escherichia coli ATCC 8793 at 30 ug/ml after 24 hr by paper disk diffusion method; assay type: functional; details: ATCC 8793, 24 h, read-out: DIZ
Staphylococcus aureus [13] = assay: Antibacterial activity against Staphylococcus aureus ATCC 25923 at 50 ug/ml after 24 hr by paper disk diffusion method; assay type: functional; details: ATCC 25923, 24 h, read-out: DIZ
Staphylococcus aureus [14] = assay: Antibacterial activity against Staphylococcus aureus ATCC 25923 at 30 ug/ml after 24 hr by paper disk diffusion method; assay type: functional; details: ATCC 25923, 24 h, read-out: DIZ
Fusarium oxysporum [15] = assay: Antifungal activity against Fusarium oxysporum MTCC 2087 at 50 ug/ml by paper disk diffusion method; assay type: functional; details: read-out: DIZ
Pseudomonas aeruginosa [16] = assay: Antibacterial activity against Pseudomonas aeruginosa ATCC 27853 at 50 ug/ml after 24 hr by paper disk diffusion method; assay type: functional; details: ATCC 27853, 24 h, read-out: DIZ
Candida albicans [17] = assay: Antifungal activity against Candida albicans MTCC 227 at 30 ug/ml by paper disk diffusion method; assay type: functional; details: read-out: DIZ
Bacillus subtilis [18] = assay: Antibacterial activity against Bacillus subtilis ATCC 6633 at 70 ug/ml after 24 hr by paper disk diffusion method; assay type: functional; details: ATCC 6633, 24 h, read-out: DIZ
Aspergillus niger [19] = assay: Antifungal activity against Aspergillus niger MTCC 3323 at 50 ug/ml by paper disk diffusion method; assay type: functional; details: read-out: DIZ
Aspergillus niger [20] = assay: Antifungal activity against Aspergillus niger MTCC 3323 at 30 ug/ml by paper disk diffusion method; assay type: functional; details: read-out: DIZ
Aspergillus niger [21] = assay: Antifungal activity against Aspergillus niger MTCC 3323 at 70 ug/ml by paper disk diffusion method; assay type: functional; details: read-out: DIZ
Candida albicans [22] = assay: Fungicidal activity against Candida albicans MTCC 227; assay type: functional, organism-based
Escherichia coli [23] = assay: Bactericidal activity against Escherichia coli ATCC 8793; assay type: functional, organism-based
Escherichia coli [24] = assay: Antibacterial activity against Escherichia coli ATCC 8793 at 70 ug/ml after 24 hr by paper disk diffusion method; assay type: functional; details: ATCC 8793, 24 h, read-out: DIZ
Escherichia coli [25] = assay: Antibacterial activity against Escherichia coli ATCC 8793 at 50 ug/ml after 24 hr by paper disk diffusion method; assay type: functional; details: ATCC 8793, 24 h, read-out: DIZ
Fusarium oxysporum [26] = assay: Antifungal activity against Fusarium oxysporum MTCC 2087 at 70 ug/ml by paper disk diffusion method; assay type: functional; details: read-out: DIZ
Aspergillus niger [27] = assay: Fungicidal activity against Aspergillus niger MTCC 3323; assay type: functional, organism-based
Candida albicans [28] = assay: Antifungal activity against Candida albicans MTCC 227 at 70 ug/ml by paper disk diffusion method; assay type: functional; details: read-out: DIZ

Row | Structure (SMILES) | zone of inhibition at 70 µg/mL (Pseudomonas aeruginosa [1]) | zone of inhibition at 30 µg/mL (Pseudomonas aeruginosa [2]) | Activity (Fusarium oxysporum [3]) | zone of inhibition at 30 µg/mL (Fusarium oxysporum [4]) | zone of inhibition at 70 µg/mL (Staphylococcus aureus [5]) | Activity (Staphylococcus aureus [6]) | Activity (Pseudomonas aeruginosa [7]) | zone of inhibition at 30 µg/mL (Bacillus subtilis [8]) | zone of inhibition at 50 µg/mL (Bacillus subtilis [9]) | zone of inhibition at 50 µg/mL (Candida albicans [10]) | Activity (Bacillus subtilis [11]) | zone of inhibition at 30 µg/mL (Escherichia coli [12]) | zone of inhibition at 50 µg/mL (Staphylococcus aureus [13]) | zone of inhibition at 30 µg/mL (Staphylococcus aureus [14]) | zone of inhibition at 50 µg/mL (Fusarium oxysporum [15]) | zone of inhibition at 50 µg/mL (Pseudomonas aeruginosa [16]) | zone of inhibition at 30 µg/mL (Candida albicans [17]) | zone of inhibition at 70 µg/mL (Bacillus subtilis [18]) | zone of inhibition at 50 µg/mL (Aspergillus niger [19]) | zone of inhibition at 30 µg/mL (Aspergillus niger [20]) | also measured
1 | Cc1ccc(-c2nnc(S)n2NC(=O)CN(C(C)C)C(C)C)cc1 | 10.1 mm | 8.3 mm | inactive | 6.06 mm | 9.1 mm | Active | Active | 7.2 mm | 8.23 mm | 9.16 mm | Active | 8.2 mm | 8.2 mm | 7.3 mm | 7.17 mm | 9.26 mm | 8.03 mm | 9.23 mm | 11 mm | 10.1 mm | zone of inhibition at 70 µg/mL (Aspergillus niger [21]): 12.2 mm; Activity (Candida albicans [22]): inactive; Activity (Escherichia coli [23]): Active; zone of inhibition at 70 µg/mL (Escherichia coli [24]): 10.5 mm; zone of inhibition at 50 µg/mL (Escherichia coli [25]): 9.2 mm; zone of inhibition at 70 µg/mL (Fusarium oxysporum [26]): 8.33 mm; Activity (Aspergillus niger [27]): inactive; zone of inhibition at 70 µg/mL (Candida albicans [28]): 10.1 mm
2 | CCN(CC)CC(=O)Nn1c(S)nnc1-c1ccc(OC)cc1 | 10.8 mm | 8.26 mm | inactive | 7.26 mm | 9.36 mm | Active | Active | 7.23 mm | 8.53 mm | 9.13 mm | Active | 9.2 mm | 8.33 mm | 7.63 mm | 8.21 mm | 9.56 mm | 8.1 mm | 9.03 mm | 10.2 mm | 9.13 mm | zone of inhibition at 70 µg/mL (Aspergillus niger [21]): 11.1 mm; Activity (Candida albicans [22]): inactive; Activity (Escherichia coli [23]): Active; zone of inhibition at 70 µg/mL (Escherichia coli [24]): 11.2 mm; zone of inhibition at 50 µg/mL (Escherichia coli [25]): 10.1 mm; zone of inhibition at 70 µg/mL (Fusarium oxysporum [26]): 9.06 mm; Activity (Aspergillus niger [27]): inactive; zone of inhibition at 70 µg/mL (Candida albicans [28]): 10.4 mm
3 | CCCCN(CCCC)CC(=O)Nn1c(S)nnc1-c1ccc(C)cc1 | 14.1 mm | 12.3 mm | Active | 8.17 mm | 14 mm | Active | Active | 10.3 mm | 11.2 mm | 12.2 mm | Active | 11.2 mm | 12.1 mm | 11.1 mm | 9.2 mm | 13.6 mm | 11.1 mm | 12.2 mm | 16.2 mm | 15.1 mm | zone of inhibition at 70 µg/mL (Aspergillus niger [21]): 18 mm; Activity (Candida albicans [22]): Active; Activity (Escherichia coli [23]): Active; zone of inhibition at 70 µg/mL (Escherichia coli [24]): 13.2 mm; zone of inhibition at 50 µg/mL (Escherichia coli [25]): 12.1 mm; zone of inhibition at 70 µg/mL (Fusarium oxysporum [26]): 11.4 mm; Activity (Aspergillus niger [27]): Active; zone of inhibition at 70 µg/mL (Candida albicans [28]): 13.2 mm
4 | CCCN(CCC)CC(=O)Nn1c(S)nnc1-c1ccc(C)cc1 | 11.1 mm | 9.56 mm | Active | 7.26 mm | 10 mm | Active | Active | 8.93 mm | 9.86 mm | 10.5 mm | Active | 9.33 mm | 9.33 mm | 8.2 mm | 8.4 mm | 10.2 mm | 9.13 mm | 10.1 mm | 12.3 mm | 11.2 mm | zone of inhibition at 70 µg/mL (Aspergillus niger [21]): 14.4 mm; Activity (Candida albicans [22]): Active; Activity (Escherichia coli [23]): Active; zone of inhibition at 70 µg/mL (Escherichia coli [24]): 11.1 mm; zone of inhibition at 50 µg/mL (Escherichia coli [25]): 10.3 mm; zone of inhibition at 70 µg/mL (Fusarium oxysporum [26]): 9.96 mm; Activity (Aspergillus niger [27]): Active; zone of inhibition at 70 µg/mL (Candida albicans [28]): 11.3 mm
5 | CCN(CC)CC(=O)Nn1c(S)nnc1-c1ccc(C)cc1 | 9 mm | 7.3 mm | inactive | 6.03 mm | 8.2 mm | Active | Active | 6.4 mm | 7.43 mm | 8.7 mm | Active | 7.3 mm | 7.4 mm | 6.36 mm | 6.23 mm | 8.4 mm | 7.13 mm | 8.26 mm | 9.23 mm | 8.2 mm | zone of inhibition at 70 µg/mL (Aspergillus niger [21]): 10.2 mm; Activity (Candida albicans [22]): inactive; Activity (Escherichia coli [23]): Active; zone of inhibition at 70 µg/mL (Escherichia coli [24]): 9 mm; zone of inhibition at 50 µg/mL (Escherichia coli [25]): 8.4 mm; zone of inhibition at 70 µg/mL (Fusarium oxysporum [26]): 7.33 mm; Activity (Aspergillus niger [27]): inactive; zone of inhibition at 70 µg/mL (Candida albicans [28]): 9.23 mm
